Measurements published in US20130310428A1, “THERMO-STABLE, ARSENIC-FREE SYNERGISTIC BIOCIDE CONCENTRATE COMPOSITION FOR POLYMER MATRICES AND PROCESS FOR PREPARING SAME” (ISP INVESTMENTS INC., priority 2010, published 2013).

Key:
Format in all cases: cell-based
[1] = tested on: mixture of Aspergillus niger (ATCC 9642), Aureobasidium pullulans (ATCC 15233), Chaetomium globosum (ATCC 6205), Penicillium funiculosum (ATCC 11797) and …; assay: Fungal resistance test ASTM G-21, flexible PVC coupons; design: key: 0 is no growth; 1 is traces of growth (less than 10%); 2 is light growth (10-30%); 3 is medium growth (30-60%); 4 is maximum growth (more than 60%); conditions: rating at 4th week
Experimental: (§1) Plastic samples containing the biocide concentrate composition containing antioxidant can be prepared by mixing with commercially available flexible PVC and processing at 175° C. in a brabender. The samples are pressed to form coupons for testing purposes. A sample containing no biocide is also prepared to serve as a negative control against the samples of the present invention.
(§2) Fungal resistance tests are conducted according to ASTM G-21. Briefly, a fungal inoculum containing a mixture of Aspergillus niger (ATCC 9642), Aureobasidium pullulans (ATCC 15233), Chaetomium globosum (ATCC 6205), Penicillium funiculosum (ATCC 11797) and Trichoderma virens (ATCC 9645) is prepared to obtain a final spore concentration of about 10^5 spores/ml. The samples (in triplicate) are placed on Petri-dishes containing nutrient salts agar and incubated with the spore suspension. The samples are then incubated at 28° C. for 4 weeks and rated weekly. The fungal growth of the samples is rated on a scale of 0 to 4 where: 0 is no growth, 1 is traces of growth (less than 10%); 2 is light growth (10-30%); 3 is medium growth (30-60%) and 4 is maximum growth (more than 60%). The ratings shown in Tables 1 to 3 correspond to those at the end of the test i.e., on 4th week for three different compositions of combination of biocidal agents.

[2] = tested on: Streptoverticillium reticulum (ATCC 25607); assay: Pink Stain test ASTM E1428, flexible PVC coupons; design: key: 0 is no stain; 1 is a trace of stain (less than 10%); 2 is light stain (10-30%); 3 is medium stain (30-50%); 4 is maximum stain (more than 50%); conditions: 14 days
Experimental: as §1
Pink Stain tests are conducted according to ASTM E1428. Briefly, an inoculum containing the microorganism Streptoverticillium reticulum (ATCC 25607) is prepared. The inoculum is streaked onto the surface of Yeast Malt Extract Agar. The samples (in triplicate) are placed on the inoculated agar and incubated at 28° C. for 14 days. The degree of staining is rated on a scale of 0-4 where: 0 is no stain; 1 is a trace of stain (less than 10%); 2 is light stain (10-30%); 3 is medium stain (30-50%) and 4 is maximum stain (more than 50%). The ratings of the pink stain test are disclosed in Tables 1 to 3 for three different synergistic biocide compositions.

[3] = tested on: mixture of A. niger (ATCC 9642) and P. funiculosum (ATCC 11797); assay: Zone of Inhibition, flexible PVC coupons on seeded Malt agar; design: key: A zone of inhibition around the sample is rated as “+”; The absence of zone of inhibition is rated as “−”; conditions: 4 weeks
Experimental: as §1
Briefly a fungal inoculum containing a mixture of A. niger (ATCC 9642) and P. funiculosum (ATCC 11797) is prepared. The spore suspension is added to molten Malt agar to a final concentration of 10^4-10^5 spores/ml, poured onto the petri-dishes and allowed to dry. The samples are placed on the surface of the seeded agar and incubated at 28° C. for 4 weeks. A zone of inhibition around the sample is rated as “+”. The absence of zone of inhibition is rated as “−”. The results are shown in Tables 1 to 3 for three different combinations of biocidal agents.

[4] = tested on: mixture of Aspergillus niger (ATCC 9642), Aureobasidium pullulans (ATCC 15233), Chaetomium globosum (ATCC 6205), Penicillium funiculosum (ATCC 11797) and …; assay: Fungal resistance ASTM G21 in swimming pool liner formulation; design: key: 0 is no growth; 1 is traces of growth (less than 10%); 2 is light growth (10-30%); 3 is medium growth (30-60%); 4 is maximum growth (more than 60%); conditions: growth rating after 4 weeks
Experimental: as §1, §2
A swimming pool liner formulation is selected. The individual and synergistic biocidal compositions respectively IPBC, Folpet, OBPA and Folpet+IPBC are added and processed in the brabender as described in Example 1. The efficacy data for each sample is tested according to ASTM G21. Growth ratings after 4 weeks are described in the following Table 4.

[5] = tested on: mixture of Aspergillus niger (ATCC 9642), Aureobasidium pullulans (ATCC 15233), Chaetomium globosum (ATCC 6205), Penicillium funiculosum (ATCC 11797) and …; assay: Fungal resistance ASTM G21 in wall covering formulation; design: key: 0 is no growth; 1 is traces of growth (less than 10%); 2 is light growth (10-30%); 3 is medium growth (30-60%); 4 is maximum growth (more than 60%); conditions: growth rating after 4 weeks
Experimental: as §1, §2
A wall covering formulation is employed for evaluating the efficacy of the present biocide concentrate composition. The individual and synergistic biocidal compositions respectively IPBC, Folpet, OBPA, Folpet+IPBC, and Folpet+TBZ are added and processed in the brabender as disclosed in Example 1. The efficacy data for each sample was tested according to ASTM G21. Growth ratings after 4 weeks are described in the following Table 5.

Row | SMILES | Fungal Resistance Test ([1]; Quantity 3000 ppm) | Pink Stain ([2]; Quantity 3000 ppm) | Zone inhibition ([3]; Quantity 3000 ppm) | Fungal Resistance Test ([4]; Quantity 2000 ppm) | Fungal Resistance Test ([5]; Quantity 2000 ppm) | Fungal Resistance Test ([1]; Quantity 500 ppm) | Pink Stain ([2]; Quantity 500 ppm) | Zone inhibition ([3]; Quantity 500 ppm) | Fungal Resistance Test ([4]; Quantity 400 ppm) | Fungal Resistance Test ([5]; Quantity 600 ppm) | Fungal Resistance Test ([4]; Quantity 500 ppm) | Fungal Resistance Test ([5]; Quantity 1000 ppm)
1 | O=C1c2ccccc2C(=O)N1SC(Cl)(Cl)Cl [Folpet, trichloromethyl-thio-phthalimide] | 1 (1 is traces of growth (less than 10%)) | 0 | − | 1 (1 is traces of growth (less than 10%)) | 3 (3 is medium growth (30-60%)) |  |  |  |  |  |  | 
2 | CCCCCCCCn1sccc1=O [OIT, 2-Octyl-4-isothiazolin-3-one] |  |  |  |  |  | 1 (1 is traces of growth (less than 10%)) | 1 (1 is a trace of stain (less than 10%)) | − |  |  |  | 
3 | c1ccc2c(c1)Oc1ccccc1[As]2O[As]1c2ccccc2Oc2ccccc21 [OBPA, 10,10-oxybisphenoxarsine] |  |  |  |  |  | 0 | 0 | + | 0 | 0 |  | 
4 | c1ccc2[nH]c(-c3cscn3)nc2c1 [TBZ, Thiabendazole] |  |  |  |  |  | 1 (1 is traces of growth (less than 10%)) | 2 (2 is light stain (10-30%)) | − |  |  |  | 
5 | CCCCNC(=O)OCC#CI [IPBC, 3-iodo-2-propynylbutyl-carbamate] |  |  |  |  |  | 1 (1 is traces of growth (less than 10%)) | 2 (2 is light stain (10-30%)) | + |  |  | 1 (1 is traces of growth (less than 10%)) | 2 (2 is light growth (10-30%))
